From patent US10329302B2, “Bicyclic-fused heteroaryl or aryl compounds” (Pfizer Inc., priority 2014, dated 2019)

system: R848-induced TNFα production by human peripheral blood mononuclear cells (PBMCs); experiment: R848 Induced TNFα in Human PBMC Assay; type: cell-based; settings: Homo sapiens, PBMC, 3 h, read-out: R848-induced TNFa PBMC IC50 (nM)

Which IC50 does the source give for `CCC1C[C@@H](COc2nccc3cc(C(N)=O)c(OC(C)C)cc23)NC1=O` (single isomer, unassigned) [Example 113] here?
The IC50 was 53 nM.

With `COc1cc2c(OC[C@@H]3CCCC(=O)N3)nccc2cc1C(N)=O` [Example 302, 7-methoxy-1-{[(2S)-6-oxopiperidin-2-yl]methoxy}isoquinoline-6-carboxamide] as the compound, how does the IC50 read?
The IC50 was 1280 nM.

How did the IC50 turn out when `CCOc1cc2c(OC[C@H]3NC(=O)[C@@H](F)[C@H]3C)nccc2cc1C(N)=O` [Example 283, 7-ethoxy-1-{[(2S,3S,4S)-4-fluoro-3-methyl-5-oxopyrrolidin-2-yl]methoxy}isoquinoline-6-carboxamide] was run?
The IC50 was 27 nM.

same assay, conditions: human PBMC, absence of serum, 3 hours; read-out: R848-induced TNFa PBMC IC50

`CC[C@]1(O)[C@H](F)C(=O)N[C@@H]1COc1nccc2cc(C(N)=O)c(OC)cc12` [Example 196, 1-{[(2R,3R,4S)-3-ethyl-4-fluoro-3-hydroxy-5-oxopyrrolidin-2-yl]methoxy}-7-methoxyisoquinoline-6-carboxamide] was tested. Which IC50 did it give?
Its IC50 is 11 nM.

Which IC50 does the source give for `[2H][C@]1(CC)[C@@H](COc2nccc3cc(C(N)=O)c(OC)cc23)NC(=O)[C@@]1([2H])F` [Example 374, 1-{[(2S,3S,4S)-3-ethyl-4-fluoro-5-oxo(3,4-bisdeutero)pyrrolidin-2-yl]methoxy}-7-methoxyisoquinoline-6-carboxamide] here?
The IC50 was 1.2 nM.

`COc1cc2c(OC[C@@H]3C[C@@](F)(CO)C(=O)N3)cccc2cc1C(N)=O` [Example 207, 5-{[(2S,4R)-4-fluoro-4-(hydroxymethyl)-5-oxopyrrolidin-2-yl]methoxy}-3-methoxynaphthalene-2-carboxamide] was tested. Which IC50 did it give?
The IC50 was 41 nM.

Which IC50 does the source give for `COc1cc2c(OC[C@@H]3C[C@](F)(CC(F)(F)F)C(=O)N3)cccc2cc1C(N)=O` [Example 241, 5-{[(2S,4S)-4-fluoro-5-oxo-4-(2,2,2-trifluoroethyl)pyrrolidin-2-yl]methoxy}-3-methoxynaphthalene-2-carboxamide] here?
The IC50 was 5760 nM.

For `[2H]C([2H])([2H])Oc1cc2c(OC[C@H]3NC(=O)[C@@H](F)[C@H]3CC)nccc2cc1C(N)=O` [Example 338, 1-{[(2S,3S,4S)-3-ethyl-4-fluoro-5-oxopyrrolidin-2-yl]methoxy}-7-[(trideutero)methyloxy]isoquinoline-6-carboxamide], which IC50 is on record?
The IC50 was 3 nM.

target: human IRAK4 FL (Full Length) (Homo sapiens (Human), UniProt Q9NWZ3); experiment: IRAK4 Enzymatic DELFIA Assay, Protocol A; type: biochemical; settings: human IRAK4 FL, 0.6 mM ATP (KM); read-out: IRAK4 DELFIA Protocol A IC50
Sequence (Q9NWZ3 whole entry): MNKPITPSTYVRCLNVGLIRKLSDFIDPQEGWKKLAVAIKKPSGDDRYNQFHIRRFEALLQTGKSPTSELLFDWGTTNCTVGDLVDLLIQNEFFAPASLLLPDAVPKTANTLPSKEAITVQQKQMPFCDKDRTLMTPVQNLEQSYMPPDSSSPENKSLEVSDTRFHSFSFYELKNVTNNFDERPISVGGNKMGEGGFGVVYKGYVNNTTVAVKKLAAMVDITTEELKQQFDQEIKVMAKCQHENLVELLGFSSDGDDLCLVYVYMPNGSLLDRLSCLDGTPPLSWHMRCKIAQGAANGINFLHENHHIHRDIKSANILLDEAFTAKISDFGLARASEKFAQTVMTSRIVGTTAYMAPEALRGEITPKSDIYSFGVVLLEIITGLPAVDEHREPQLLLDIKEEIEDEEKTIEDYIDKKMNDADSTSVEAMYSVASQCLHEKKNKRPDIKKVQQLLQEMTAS

With `CC(C)Oc1cc2c(O[C@H](C)[C@@H]3CCC(=O)N3)nccc2cc1C(N)=O` [Example 156, 1-{(1R)-1-[(2S)-5-oxopyrrolidin-2-yl]ethoxy}-7-(propan-2-yloxy)isoquinoline-6-carboxamide] as the compound, how does the IC50 read?
Its IC50 is 4100 nM.

With `COc1cc2c(OC[C@@H]3C[C@H](CC#N)C(=O)N3)nccc2cc1C(N)=O` [Example 224, 1-{[(2S,4R)-4-(cyanomethyl)-5-oxopyrrolidin-2-yl]methoxy}-7-methoxyisoquinoline-6-carboxamide] as the compound, how does the IC50 read?
The IC50 was 1170 nM.

For `Cc1cnc(OC[C@@H]2CCC(=O)N2)c2cc(OC(C)C)c(C(N)=O)cc12` [Example 05, 4-methyl-1-{[(2S)-5-oxopyrrolidin-2-yl]methoxy}-7-(propan-2-yloxy)isoquinoline-6-carboxamide], which IC50 is on record?
Its IC50 is 84 nM.

How did the IC50 turn out when `CC(C)(C)Oc1cc2c(OC[C@@H]3CCC(=O)N3)nccc2cc1C(N)=O` [Example 200, 7-tert-butoxy-1-{[(2S)-5-oxopyrrolidin-2-yl]methoxy}isoquinoline-6-carboxamide] was run?
The IC50 was 697 nM.

With `CC(C)Oc1cc2c(OCC3COCC(=O)N3)nccc2cc1C(N)=O` (stereo not drawn) [Example 116, 1-[(5-oxomorpholin-3-yl)methoxy]-7-(propan-2-yloxy)isoquinoline-6-carboxamide] as the compound, how does the IC50 read?
The IC50 was 146 nM.

How did the IC50 turn out when `CC(C)Oc1cc2c(OC[C@@H]3C[C@@](O)(CC(F)(F)F)C(=O)N3)nccc2cc1C(N)=O` [Example 182, 1-{[(2S,4R)-4-hydroxy-5-oxo-4-(2,2,2-trifluoroethyl)pyrrolidin-2-yl]methoxy}-7-(propan-2-yloxy)isoquinoline-6-carboxamide] was run?
The IC50 was 1050 nM.

Which IC50 does the source give for `CC(C)Oc1cc2c(OCC3CN(C(=O)CC#N)C3)ccnc2cc1C(N)=O` [Example 60, 4-{[1-(cyanoacetyl)azetidin-3-yl]methoxy}-6-(propan-2-yloxy)quinoline-7-carboxamide] here?
Its IC50 is 8.9 nM.

With `NC(=O)c1cc2ccnc(OC[C@@H]3CCC(=O)N3)c2cc1OC(F)(F)F` [Example 178, 1-{[(2S)-5-oxopyrrolidin-2-yl]methoxy}-7-(trifluoromethoxy)isoquinoline-6-carboxamide] as the compound, how does the IC50 read?
The IC50 was 1690 nM.

`CC(C)Oc1cc2c(OC[C@@H]3CCC(=O)N3)ncc(-c3ncc(Cl)cn3)c2cc1C(N)=O` [Example 377, 4-(5-chloropyrimidin-2-yl)-1-{[(2S)-5-oxopyrrolidin-2-yl]methoxy}-7-(propan-2-yloxy)isoquinoline-6-carboxamide] was tested. Which IC50 did it give?
Its IC50 is 72 nM.

`CC(C)Oc1cc2c(OCC3CCC(=O)NC3)nccc2cc1C(N)=O` (stereo not drawn) [Example 142, 1-[(6-oxopiperidin-3-yl)methoxy]-7-(propan-2-yloxy)isoquinoline-6-carboxamide] was tested. Which IC50 did it give?
Its IC50 is 1220 nM.

How did the IC50 turn out when `NC(=O)c1cc2ccnc(OC[C@@H]3CCC(=O)N3)c2cc1OC1CCC1` [Example 120, 7-(cyclobutyloxy)-1-{[(2S)-5-oxopyrrolidin-2-yl]methoxy}isoquinoline-6-carboxamide] was run?
The IC50 was 1140 nM.

How did the IC50 turn out when `CC(C)Oc1cc2c(OC[C@@H]3C[C@H](C(C)(C)O)C(=O)N3)nccc2cc1C(N)=O` [Example 137, 1-{[(2S,4R)-4-(2-hydroxypropan-2-yl)-5-oxopyrrolidin-2-yl]methoxy}-7-(propan-2-yloxy)isoquinoline-6-carboxamide] was run?
Its IC50 is 98 nM.

Which IC50 does the source give for `COc1cc2c(OC[C@H]3NC(=O)[C@@](F)(CO)[C@H]3C)nccc2cc1C(N)=O` [Example 210, 1-{[(2S,3S,4S)-4-fluoro-4-(hydroxymethyl)-3-methyl-5-oxopyrrolidin-2-yl]methoxy}-7-methoxyisoquinoline-6-carboxamide] here?
The IC50 was 3470 nM.

With `COc1cc2c(OC[C@H]3NC(=O)[C@@H]4[C@@H](C)[C@@H]43)c(Cl)cnc2cc1C(N)=O` [Example 321, 3-chloro-6-methoxy-4-{[(1S,2S,5R)-6-methyl-4-oxo-3-azabicyclo[3.1.0]hex-2-yl]methoxy}quinoline-7-carboxamide] as the compound, how does the IC50 read?
The IC50 was 4190 nM.

Which IC50 does the source give for `CC(C)Oc1cc2c(OC[C@@H]3CCN(C(=O)CC#N)C3)ccnc2cc1C(N)=O` [Example 23, 4-{[(3R)-1-(cyanoacetyl)pyrrolidin-3-yl]methoxy}-6-(propan-2-yloxy)quinoline-7-carboxamide] here?
The IC50 was 656 nM.

How did the IC50 turn out when `CC(C)Oc1cc2c(O[C@@H](C)[C@@H]3CCC(=O)N3)nccc2cc1C(N)=O` [Example 157, 1-{(1S)-1-[(2S)-5-oxopyrrolidin-2-yl]ethoxy}-7-(propan-2-yloxy)isoquinoline-6-carboxamide] was run?
Its IC50 is 152 nM.

Which IC50 does the source give for `CC(C)Oc1cc2c(OC[C@@H]3C[C@@](C)(F)C(=O)N3)nccc2cc1C(N)=O` [Example 133, 1-{[(2S,4R)-4-fluoro-4-methyl-5-oxopyrrolidin-2-yl]methoxy}-7-(propan-2-yloxy)isoquinoline-6-carboxamide] here?
Its IC50 is 175 nM.

How did the IC50 turn out when `COc1cc2c(OC[C@H]3NC(=O)[C@@H](C)[C@@H]3CF)nccc2cc1C(N)=O` [Example 254, 1-{[(2S,3S,4S)-3-(fluoromethyl)-4-methyl-5-oxopyrrolidin-2-yl]methoxy}-7-methoxyisoquinoline-6-carboxamide] was run?
The IC50 was 2950 nM.

With `COc1cc2c(OC[C@@H]3C[C@](F)(CF)C(=O)N3)nccc2cc1C(N)=O` [Example 261, 1-{[(2S,4R)-4-fluoro-4-(fluoromethyl)-5-oxopyrrolidin-2-yl]methoxy}-7-methoxyisoquinoline-6-carboxamide] as the compound, how does the IC50 read?
Its IC50 is 671 nM.
